In patent US20180201594A1, “Compound pac-1 or salt thereof and pharmaceutical composition comprising same” (priority 2015, published 2018):
Converted amounts (≈) assume the structure as drawn.

Key:
[1] = tested on: Murine Lewis lung carcinoma cell line; test: Spontaneous metastatic cancer in mice (Lewis lung carcinoma); conditions: 100 mg/kg/d, intragastric administration
Protocol: The tumors growed to 1000 mm^3 and then were randomly divided into groups for adminstration, the groups were treated after three weeks. A total of 4 groups including ZYS-1 high, medium and low (100, 50, 25 mg/kg/d, intragastric administration) and positive control (gefitinib 100 mg/kg/d, intragastric administration) groups were set. The efficacy of ZYS-1 was evaluated in terms of general survival status (food intake, activity, hair etc.), tumor inhibition rate and metastasis inhibition rate.
The curve of tumor growth was plotted. On the next day after completing the treatment cycle, the animal was weighed. After collecting the blood, the animal was sacrificed. The tumor tissue was stripped, weighed, and the tumor inhibition rate was calculated. Store at −80 ? .
Metastasis rate=Number of mice with metastasis/Total number of mice×100%
Inhibition rate of metastasis loci=(average number of metastasis loci in the control group−average number of metastasis loci in the experimental group)/average number of metastasis loci in the control group×100%

[2] = Solubility comparison of ZYS-1 and PAC-1 needle crystal (HPLC); assay type: physicochemical; conditions: organic solvent or mixture, thermodynamic from solid, room temperature
Protocol: The appropriate amounts of ZYS-1 and PAC-1 needle crystal were dissolved into the appropriate amount of methanol, absolute ethanol, 95% ethanol, acetonitrile, ethyl ether, ethyl acetate, propanol, acetone, respectively, and sonicated for 1 hour, then left at room temperature for 24 hours to obtain the oversaturated solution. After centrifugation at 4000 r/min for 5 min, the supernatant was diluted appropriately and filtered through a 0.45 μm needle filter. The concentration was determined by HPLC and the solubility was calculated.

[3] = In vivo pharmacokinetic comparison in rats; conditions: male Wistar rats, 60 mg/Kg, n = 6
Protocol: Twelve male Wistar rats were randomly divided into ZYS-1 group and PAC-1 group. These rats were fasted for 12 hours before administration, and fed water freely. After ZYS-1 and PAC-1 needle crystal were given at the dose of 60 mg/Kg, 0.5 mL orbital blood was collected at 0, 5, 20, 30, 45, 60, 120, 180, 240, 360, 480, 720 mins, centrifuged at 5000 r/min for 5 min. 200 μL plasma was taken. The plasma was added 3 mL acetone and vortexed for 1 min. After centrifuging at 15000 r/min for 5 min, the supernatant was collected and dried under nitrogen at 37° C., to which 200 μL acetonitrile was added to be reconstituted. After sonication for 10 min, the mixture was vortexed for 1 min, and filtered through 0.45 microporous filter membrane. The filtrate was tested by HPLC, and the plasma concentration at each time point was calculated.

[4] = in vivo; conditions: both sexes, ICR, mouse, in vivo, po
Excerpt: (§1) Experimental materials: PAC-1 needle crystal (prepared according to the method of Quinn P. Peterson et al., J. Med. Chem. 2009, 52, 5721-5731), batch number 20090818.
(§2) Experimental animals and feeding conditions: ICR mice, half male and half female. Body weight 20±2 g, provided by Beijing Weitonglihua Experimental Animal Technology Co., Ltd., SPF grade feeding, certificate: SCXK (Beijing) 2006-0009. Particulate feed for mouse breeding was provided by Beijing Ke'ao Xieli Feed Co., Ltd. Animals were housed in barrier-level (Grade 2) animal lab in Beijing Anzhen Hospital, fluorescent lighting, 12 h light and dark cycle, room ? temperature 22˜24 ? , humidity 40-47%, air supply 10-12 times/h, Laboratory license number: SYXK (Beijing) 2005-0028. Mice were housed in clear plastic boxes with 5 per cage separated by gender.
(§3) The method of preparing the test drug: PAC-1 needle crystal was placed in a mortar to be finely ground. A propriate amount of PAC-1 crystal was accurately weighed, which was formulated with 0.5% CMC-Na to reach the desired concentration.
(§4) Animals grouping: After fasting (except for water) for 11 h, according to body weight, animals were randomly divided into groups of 10 with 5 males and 5 females. There were 8 groups in total. […]. One-time intragastric administration was used in the experiment. The negative control group was orally administered an equal volume of 0.5% CMC-Na. The animals started feeding at 3 hours after administration.
(§5) Observed indicators: immediately after administration, the observation of the responses of the animals to drugs (such as: general performance, respiration, activity, with or without convulsions, righting reflex, pain reflex, response to external stimuli and other indicators) was started. When observing and recording the symptom of toxic reaction after animal administration, the time and duration of toxicity, recovery time, and the time of animal death, the animal was immediately dissected grossly, visually observing the main organs (heart, liver, spleen, lung and kidney, stomach) to see if there is congestion, increased volume, hardens, discoloration. For survival animals, they were observed and recorded day by day whether there was delayed death and delayed toxicity reaction in 7 days. The animals were weighed and fed once every 2 days. After finishing observation for 7 days, the survival animals were dissected grossly and the situations of their main organs were observed. […]

[5] = tested on: ICR mice; test: in vivo
Excerpt: as §1, §2, §3, §4, §5

[6] = Solubility comparison of ZYS-1 and PAC-1 needle crystal (HPLC); assay type: physicochemical; conditions: room temperature
[7] = both, ICR, mouse, in vivo, 7 days
[8] = one-time intragastric administration to mice

## COc1cc2ncnc(Nc3ccc(F)c(Cl)c3)c2cc1OCCCN1CCOCC1 [Gefitinib, gefitinib, reference compound]
[1]
  Body weight of the animals, End: 30.5 ± 5.0 g
  Metastasis rate: 100%
  Number of lung (metastasis loci): 6.9 ± 3.7
  Tumor weight: 2.1036 ± 0.3382 g

## C=CCc1cccc(/C=N/NC(=O)CN2CCN(Cc3ccccc3)CC2)c1O [PAC-1 needle crystal, 1-Piperazineacetic acid, 4-(phenylmethyl)-2-[[2-hydroxy-3-(2-propen-1-yl)phenyl]methylene], reference compound]
[2]; 95% ethanol
  solubility at 24 h: 16.4 mg/mL (≈ 41.9 mM)
[2]; absolute ethanol
  solubility at 24 h: 18.9 mg/mL (≈ 48.3 mM)
[2]; acetone
  solubility at 24 h: 81.8 mg/mL (≈ 208 mM)
[2]; acetonitrile
  solubility at 24 h: 20.7 mg/mL (≈ 52.8 mM)
[2]; diethyl ether
  solubility at 24 h: 3.51 mg/mL (≈ 8.94 mM)
[2]; ethyl acetate
  solubility at 24 h: 33.4 mg/mL (≈ 85 mM)
[2]; methanol
  solubility at 24 h: 28.2 mg/mL (≈ 71.8 mM)
[2]; propanol
  solubility at 24 h: 16 mg/mL (≈ 40.9 mM)
[3]
  AUC(0-tn): 320.2186357 ± 127.0767162 µg·h/mL
  AUC(0-∞): 578.8993071 ± 466.830172 µg·h/mL
  Cmax: 2078.7579 ± 950.561 ng/mL
  MRT(0-tn): 254.3166 ± 180.2413 h
  MRT(0-∞): 1501.7189 ± 1808.4213 h
  Tmax: 52.5000 ± 12.5499 h
  T½ka: 15.4260 ± 11.8916 h
  T½α: 134.7563 ± 63.3796 h
  V/F: 0.0318 ± 0.0177 L
  ka: 0.0720 ± 0.0468 h⁻¹
  ke: 0.0062 ± 0.0029 h⁻¹
  lagtime: 8.8081 ± 4.8496 h
[4]; LD50 95% confidence limit
  LD50 at 7 days: 451 to 675 mg/kg
[4]; acute toxicity (LD50) dose
  LD50 at 7 days: 552 mg/kg
[5]; [7]
  0% mortality dose: 240.1 mg/kg
  100% mortality dose: greater than 1000 mg/kg
  dose without apparent toxicity: 117.7 mg/kg
[5]; [8]
  time for most survival animals to return to normal after dosing: ≤ 3 h
  time of death after administration (mainly): 30˜60 min
[6]; Water
  Solubility: 0.0015 mg/mL (≈ 0.00382 mM)
[6]; chloroform, organic solvent or mixture, thermodynamic from solid
  solubility at 24 h: 290 mg/mL (≈ 740 mM)
